Data from ChEMBL document CHEMBL2169770, “The discovery and optimization of a novel class of potent, selective, and orally bioavailable anaplastic lymphoma kinase (ALK) inhibitors with potential utility for the treatment of cancer” (J Med Chem, 2012).

What was measured:
[1] = Volume of distribution at steady state in rat; assay type: ADME, organism-based; details: in vivo, read-out: Vdss
[2] = Volume of distribution at steady state in Beagle dog; assay type: ADME, organism-based, Canis lupus familiaris; details: in vivo, read-out: Vdss
[3] = Oral bioavailability in Beagle dog; assay type: ADME, organism-based, Canis lupus familiaris; details: in vivo
[4] = Oral bioavailability in rat; assay type: ADME, organism-based; details: in vivo

| Vd [1] [L/kg] | Vd [2] [L/kg] | bioavailability [3] [%] | bioavailability [4] [%] | SMILES |
| --- | --- | --- | --- | --- |
| 6.4 | 1.58 | 52 | 20 | CC(C)NC(=O)[C@H]1CC[C@@H](n2/c(=N/C(=O)c3ccc(F)cc3)[nH]c3ccc(CN4CCC(C(C)(C)O)CC4)cc32)CC1 |
| 5.42 | 1.82 | 71 | 11 | CC(C)NC(=O)[C@H]1CC[C@@H](n2/c(=N/C(=O)c3cc(F)cc(F)c3)[nH]c3ccc(CN4CCC(C(C)(C)O)CC4)cc32)CC1 |
